{"source": "patent US20240124485A1", "about": "“SUBSTITUTED AMIDE MACROCYCLIC COMPOUNDS WITH OREXIN-2 RECEPTOR AGONIST ACTIVITY” (Alkermes, Inc., priority 2021, published 2024)", "data": [{"molecular_target": "T1, human orexin-2 receptor (OX2R) (Homo sapiens, UniProt O43614)", "T1 construct": "expressed in transfected cells", "T1 sequence (O43614 1-444)": "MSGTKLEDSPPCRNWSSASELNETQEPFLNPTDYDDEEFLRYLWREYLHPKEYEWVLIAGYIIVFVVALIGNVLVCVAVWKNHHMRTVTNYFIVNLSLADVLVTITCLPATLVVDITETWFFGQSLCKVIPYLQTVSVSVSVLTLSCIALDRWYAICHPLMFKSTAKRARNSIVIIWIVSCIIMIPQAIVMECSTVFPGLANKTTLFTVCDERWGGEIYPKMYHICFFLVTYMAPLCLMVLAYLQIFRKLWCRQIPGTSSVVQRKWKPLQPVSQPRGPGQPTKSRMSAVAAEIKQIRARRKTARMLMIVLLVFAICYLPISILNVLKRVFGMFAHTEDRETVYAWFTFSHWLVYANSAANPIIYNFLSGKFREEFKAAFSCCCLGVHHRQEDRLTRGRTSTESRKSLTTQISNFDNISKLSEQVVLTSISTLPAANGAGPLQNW", "experiment": "Human OX2R IP1 assay", "assay_type": "cell-based", "conditions": "T-Rex CHO cells stably overexpressing the human orexin-2 receptor; IP1 accumulation, 1 hr at 37 degrees C", "method": "T-Rex CHO cells stably overexpressing the human orexin-2 receptor (OX2R) were induced overnight with 1 μg/mL of doxycycline in a T225 flask. 24 hours post induction, cells were lifted with accutase and plated into a 384-well proxy plate at 30,000 cells/well. Cells were then treated with different test compounds in 1× stimulation buffer containing 10 mM Hepes, 1 mM CaCl2), 0.5 mM MgCl2, 4.2 mM KCl, 146 mM NaCl, 5.5 mM glucose, and 50 mM LiCl, pH 7.4, for 1 hr at 37 degrees C. Following incubation, the reaction was terminated by the addition of detection mix, which is composed of IP1-d2 and anti-IP1-cryptate diluted in lysis buffer as well as 1× stimulation buffer. The plates were allowed to incubate for 1 hour at room temperature and were then read in the ENVISION® multimode plate reader, measuring inositol phosphate levels.\nCisbio IP1 is a cell-based functional assay quantifying the accumulation of inositol monophosphate (IP), a metabolite released as a result of orexin 2 receptor activation through the phospholipase C-Gq signaling pathway. This is a competitive immunoassay in which the IP1 produced by the cells upon receptor activation competes with the IP1 analog coupled to the d2 fluorophore (acceptor) for binding to an anti-IP1 monoclonal antibody labeled with Eucryptate (donor). The measured HTRF-FRET based signal is inversely proportional to the IP1 concentration produced.\nThe EC50 values reported in Table 2 were obtained according to the human OX2R IP1 assay described above. Data are the mean EC50 values ±S.E.M.", "units": {"EC50": "nM"}, "values": [{"molecule": "O=C(N[C@H]1CCCN2C(=O)COc3ccccc3C3CCC(CC3)OC[C@@H]12)C1COCCO1", "note": "(stereo in doubt) [Compound 1]", "EC50": "< 100"}, {"molecule": "O=C(N[C@H]1CCCN2C(=O)COc3ccccc3C3CCC(CC3)OC[C@@H]12)C1CCCCO1", "note": "(stereo in doubt) [Compound 2]", "EC50": "< 100"}, {"molecule": "COCC(=O)N[C@H]1CCCN2C(=O)COc3ccccc3[C@H]3CC[C@H](CC3)OC[C@@H]12", "note": "(stereo in doubt) [Compound 3]", "EC50": "< 100"}, {"molecule": "O=C(N[C@H]1CCCN2C(=O)COc3ccccc3C3CCC(CC3)OC[C@@H]12)C1CCCOC1", "note": "(stereo in doubt) [Compound 4]", "EC50": "100 to 1000"}, {"molecule": "O=C(N[C@H]1CCCN2C(=O)COc3ccccc3C3CCC(CC3)OC[C@@H]12)C1CCOC1", "note": "(stereo in doubt) [Compound 5]", "EC50": "100 to 1000"}, {"molecule": "O=C(N[C@H]1CCCN2C(=O)COc3ccccc3C3CCC(CC3)OC[C@@H]12)C1CCOC1", "note": "(stereo in doubt) [Compound 6]", "EC50": "100 to 1000"}, {"molecule": "O=C(N[C@H]1CCCN2C(=O)COc3ccccc3C3CCC(CC3)OC[C@@H]12)C1COCCO1", "note": "(stereo in doubt) [Compound 8]", "EC50": "100 to 1000"}, {"molecule": "O=C(N[C@H]1CCCN2C(=O)COc3ccccc3C3CCC(CC3)OC[C@@H]12)C1CCO1", "note": "(stereo in doubt) [Compound 9]", "EC50": "100 to 1000"}, {"molecule": "O=C(N[C@H]1CCCN2C(=O)COc3ccccc3C3CCC(CC3)OC[C@@H]12)C1CCCO1", "note": "(stereo in doubt) [Compound 10]", "EC50": "< 100"}, {"molecule": "O=C(N[C@H]1CCCN2C(=O)COc3ccccc3C3CCC(CC3)OC[C@@H]12)C1CCCOC1", "note": "(stereo in doubt) [Compound 11]", "EC50": "100 to 1000"}, {"molecule": "O=C(N[C@H]1CCCN2C(=O)COc3ccccc3C3CCC(CC3)OC[C@@H]12)C1CCO1", "note": "(stereo in doubt) [Compound 12]", "EC50": "< 100"}, {"molecule": "Cc1ccnc2c1C1CCC(CC1)OC[C@H]1[C@@H](NC(=O)C3CCCO3)CCCN1C(=O)CO2", "note": "(stereo in doubt) [Compound 13]", "EC50": "< 100"}, {"molecule": "Cc1cccc2c1C1CCC(CC1)OC[C@H]1[C@@H](NC(=O)C3CCCO3)CCCN1C(=O)CO2", "note": "(stereo in doubt) [Compound 14]", "EC50": "< 100"}, {"molecule": "CN(C)C(=O)C(=O)N[C@H]1CCCN2C(=O)COc3ccccc3[C@H]3CC[C@H](CC3)OC[C@@H]12", "note": "[Compound 7]", "EC50": "< 100"}, {"molecule": "Cc1cccc2c1C1CCC(CC1)OCC1[C@@H](NC(=O)C3CCCO3)CCCN1C(=O)CO2", "note": "(some centres unmarked) [Compound 15]", "EC50": "< 100"}, {"molecule": "O=C(N[C@H]1CCCN2C(=O)COc3ccccc3[C@H]3CC[C@H](CC3)OC[C@@H]12)C1COC1", "note": "[Compound 16]", "EC50": "< 100"}, {"molecule": "Cc1ccnc2c1C1CCC(CC1)OCC1[C@@H](NC(=O)C3CCCO3)CCCN1C(=O)CO2", "note": "(some centres unmarked) [Compound 17]", "EC50": "< 100"}, {"molecule": "O=C(N[C@H]1CCCN2C(=O)COc3ccccc3[C@H]3CC[C@H](CC3)OC[C@@H]12)c1ncco1", "note": "[Compound 18]", "EC50": "> 1000"}, {"molecule": "CN1CCC1C(=O)N[C@H]1CCCN2C(=O)COc3ccccc3C3CCC(CC3)OCC12", "note": "(some centres unmarked) [Compound 19]", "EC50": "> 1000"}, {"molecule": "O=C(N[C@H]1CCCN2C(=O)COc3ccccc3C3CCC(CC3)OCC12)C1CCCCO1", "note": "(some centres unmarked) [Compound 20]", "EC50": "> 1000"}, {"molecule": "CN1CCOC(C(=O)N[C@H]2CCCN3C(=O)COc4ccccc4C4CCC(CC4)OCC23)C1", "note": "(some centres unmarked) [Compound 21]", "EC50": "> 1000"}, {"molecule": "CN1CCCC1C(=O)N[C@H]1CCCN2C(=O)COc3ccccc3C3CCC(CC3)OCC12", "note": "(some centres unmarked) [Compound 22]", "EC50": "> 1000"}, {"molecule": "CN1CCC1C(=O)N[C@H]1CCCN2C(=O)COc3ccccc3C3CCC(CC3)OCC12", "note": "(some centres unmarked) [Compound 23]", "EC50": "> 1000"}, {"molecule": "CN1CCCC1C(=O)N[C@H]1CCCN2C(=O)COc3ccccc3C3CCC(CC3)OCC12", "note": "(some centres unmarked) [Compound 24]", "EC50": "> 1000"}, {"molecule": "CN1CCOC(C(=O)N[C@H]2CCCN3C(=O)COc4ccccc4C4CCC(CC4)OCC23)C1", "note": "(some centres unmarked) [Compound 25]", "EC50": "> 1000"}, {"molecule": "COC1(C(=O)N[C@H]2CCCN3C(=O)COc4ccccc4[C@H]4CC[C@H](CC4)OC[C@@H]23)CC1", "note": "[Compound 89]", "EC50": "> 1000"}]}]}
